Experimental data: patent US8198317B2, “Methylenedioxy phenolic compounds and their use to treat disease” (The Ohio State University Research Foundation, priority 2008, dated 2012)
Values belong to the compound of their own block, whether it stands above or below them.

What was measured:
[1] = tested on: VCAM-1; assay: VCAM-1 western blot in TNFα treated HUVECs; assay type: cell-based, human
Protocol: FIG. 25 is a graph showing VCAM-1 protein expression level as a cellular correlate of inflammation. INV-75 inhibits TNFα induced VCAM-1 expression in HUVECs. HUVECs were pretreated with vehicle, INV75, or WY-14643 for 2 hours, and then treated with TNFα for 4 hours. VCAM-1 expression was analyzed by Western blot. A representative and summary of three independent experiments are presented. *, p<0.05 vs control; #, p<0.05 vs TNFα.
In subsequent experiments we also tested the effects of INV-75 on VCAM-1 expression by western blot.
We have also examined the effects of INV-75 in cell culture to understand its effects on regulation of the adhesion molecule VCAM-1. We had previously shown that iNV-75 reduced NF-kB activation and expression of VCAM-1 and ICAM-1 in HUVEC cells (see FIG. 3 and FIG. 4). […] HUVECs were pretreated with vehicle, INV-75, or WY-14643 for 2 hours, and then treated with TNFα for 4 hours. VCAM-1 expression was analyzed at the end of this duration. A representative and summary of three independent experiments are presented. *, p<0.05 vs control; #, p<0.05 vs TNFα (FIG. 25).

[2] = target: T1, PPARδ (Homo sapiens, UniProt Q03181); assay: GAL4-PPARδ-LBD luciferase assay in HepG2 cells; assay type: cell-based; conditions: 1 μM to 1000 μM
T1 construct: GAL4-PPARδ-LBD plasmid+UAS-Luciferase; expressed in transfected cells; host or cells: HepG2
T1 sequence (Q03181 211-439 limits assumed, species assumed): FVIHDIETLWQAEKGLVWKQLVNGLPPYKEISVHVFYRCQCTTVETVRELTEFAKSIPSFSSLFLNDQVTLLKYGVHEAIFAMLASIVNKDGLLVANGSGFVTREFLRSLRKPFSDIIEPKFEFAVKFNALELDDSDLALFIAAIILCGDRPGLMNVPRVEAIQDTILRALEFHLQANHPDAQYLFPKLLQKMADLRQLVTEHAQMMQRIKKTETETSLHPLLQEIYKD
Description: We used a reporter gene assay in HepG2 cells to screen for agonists of the peroxisome proliferator-activated receptors. Peroxisome proliferator-activated receptors (PPARs) and other members of the nuclear hormone receptor family are important drug targets for the treatment of metabolic diseases. PPARs play crucial roles in lipid and glucose metabolism, respectively. Therefore, screening methods that help to rapidly identify activators of these receptors should be of considerable value. INV-75 activated a classic PPARα gene, Acetyl-CoA Oxidase (ACO) in a dose dependent and time dependent fashion (FIG. 6A). The time course experiment was performed in presence of INV-75 up to 15 hours. […] We next tested the specificity of INV-75 for PPARα by performing experiments in HepG2 cells transfected with yeast GAL4-PPARα-LBD plasmid+UAS-Luciferase; GAL4-PPARδ-LBD plasmid+UAS-Luciferase and […]. The PPARα, PPARδ and PPARγ binding assays were performed using multiple concentrations of INV-75 (1 μM, 10 μM, 100 μM and 1000 μM). The level of luciferase activity corresponded to the degree of PPAR activation. The results were compared with classic PPAR agonists such as WY-14643 (PPARα agonist), Bezafibrate (PPARδ agonist) and Rosiglitazone ([…]).

[3] = tested on: Watanabe Heritable Hyperlipidemic Rabbits (WHHL); assay: Blood lipid profile in WHHL rabbits; assay type: in vivo, rabbit; conditions: end of treatment
Protocol: Hypercholesterolemia and oxidative stress occupy an important function in the progress of atherosclerosis. Lipids (cholesterol and LDL) in the blood were evaluated by analyzing the blood samples both at the baseline and the end point measurements. 1 ml of blood from an ear lobe vein was placed into K EDTA tubes at a start of high cholesterol diet and again at the time of sacrifice. All values were expressed as mean±SD. The bar graph of each group for total cholesterol and LDL cholesterol at baseline prior to the initiation of high fat chow, following high fat chow but before intervention and at the end of intervention with INV-75 and control are presented. (FIG. 14 A and FIG. 14B). […] The lack of effect may relate to the genetic model (WHHL) which has extremely high lipid values and a mutation in the LDL receptor. Since INV 75 is believed to function by increasing LDL clearance through an increase in LDL receptor expression, the lack of effect on LDL cholesterol and total cholesterol (major lipoprotein fraction in this model at baseline and in response to high fat chow feeding) is understandable.

[4] = tested on: Watanabe Heritable Hyperlipidemic Rabbits (WHHL); assay: 8-Isoprostane enzyme linked immunoassay in WHHL rabbits; assay type: in vivo, rabbit; conditions: vs control groups
Protocol: […] […] Both samples underwent affinity purification (Cayman Chemical, Ann Arbor, Mich.) and then measurement of 8-isoprostane with the Stat-8-Isoprostane ELISA kit (Cayman Chemical, Ann Arbor, Mich.). […] The protein levels in liver lysates were determined by BCA Protein Assay (Pierce, Rockford, Ill.).

[5] = tested on: New Zealand White rabbits; assay: Oil Red O staining of abdominal aorta of NZW rabbits; assay type: in vivo, rabbit
Protocol: Animal Model: 15 male New Zealand White rabbits (Charles River, Mass.) were fed with high fat diet (HFD) (Harlan Teklad rabbit diet with 0.5% cholesterol, TD 87251). After 4 weeks of high fat diet, rabbits were randomized into three different treatment groups, normal control (n=5), lipoic acid (100 mg/kg/day) (n=5), INV 70-65 (100 mg/kg/day) (n=5). These drugs were administered to the animals via their chow by mixing the drugs with the high fat diet. A fixed amount of chow and drugs admixed in the chow were fed to all animals every day after carefully calculating food intake in each rabbit. Drugs were dissolved in 100% ethanol and sprayed onto the diet and kept under vacuum to let ethanol evaporate overnight. Two (2) weeks after drug or control admixed HFD, all rabbits underwent aortic balloon denudation surgeries followed by 12 weeks of continued administration of drug or controls admixed with HFD. FIG. 29 provides an outline of the experimental design.
Hypercholesterolemia and oxidative stress play an important role in the development of atherosclerosis. The rabbits were sacrificed and abdominal aortas were fixed in 4% PFA (paraformaldehyde). The lipid deposition in the aortic wall was then visualized by oil red staining.

[6] = tested on: Patient; assay: Treatment of a patient with chronic myocardial infarction (Example 19); assay type: in vivo, human; conditions: 1.0 to 100 mg/kg with standard therapy
Protocol: A person with a prior history of a heart attack (myocardial infarction) 1 year ago presents for evaluation. They are asymptomatic. The patient is administered a composition comprising an effective amount of 3,4-Methylenedioxy 6-nitro phenyl lipoate (INV-7465) (1.0 to 100 mg/kg). Alternate therapies include, 3,4-methylenedioxy phenyl acetate (INV 73); 3,4-methylenedioxy-6-nitrophenol (INV 74); 3,4-methylenedioxy-6-nitrophenyl acetate (INV 75); 3,4-Methylenedioxy 6-nitro phenyl lipoate (INV-7465) or 3,4-Methylenedioxy phenyl lipoate (INV-7065). The composition is administered in conjunction with therapy such as aspirin, a drug to reduce the tendency of platelet aggregation, such as clopidogrel bisulfate, a statin, ezetimibe, an angiotensin converting enzyme inhibitor or angiotensin receptor blocker, and other anti-hypertensive agents such as beta-blockers, using dosages known to one of ordinary skill in the art. Patient notes added benefit in total and LDL cholesterol and a reduction in inflammatory markers such as C reactive protein.

effects on PPARδ [2]: without effects
SMILES: CC(=O)Oc1cc2c(cc1[N+](=O)[O-])OCO2 [INV-75, 3,4-methylenedioxy-6-nitrophenyl acetate]
TNFα induced VCAM-1 expression ([1]; HUVECs pretreated 2 hours, then TNFα 4 hours): inhibits | VCAM-1 protein levels by western blot ([1]; pre-treatment versus control (vehicle)): reduction | LDL cholesterol [3]: no differences | total cholesterol [3]: no differences | 8-Isoprostane production in aortic homogenates [4]: significantly lower | 8-Isoprostane production in plasma [4]: significantly lower

SMILES: O=C(CCCCC1CCSS1)Oc1ccc2c(c1)OCO2 (stereo not drawn) [INV-7065, 3,4-Methylenedioxy phenyl lipoate]
reduction in lipid deposition in the aortic wall compared to controls ([5]; NZW): about 80% | reduction in lipid deposition in the aortic wall compared to lipoic acid ([5]; NZW): about 40% | lipid content in the plaque area (Oil Red O) compared to the control group ([5]; NZW abdominal aorta): reduction

SMILES: O=C(CCCCC1CCSS1)Oc1cc2c(cc1[N+](=O)[O-])OCO2 (stereo not drawn) [INV-7465, 3,4-Methylenedioxy 6-nitro phenyl lipoate]
inflammatory markers such as C reactive protein [6]: reduction | total and LDL cholesterol [6]: added benefit
